# From US12202832B2, “Heterocyclic compounds having a calcium-sensing receptor antagonistic activity” (TAKEDA PHARMACEUTICAL COMPANY LIMITED, priority 2017, dated 2025)
# Target: T1, human CaSR (Homo sapiens, UniProt P41180)
# T1 construct: expressed in transfected cells; host or cells: CHO cells
# T1 sequence (P41180 20-1078): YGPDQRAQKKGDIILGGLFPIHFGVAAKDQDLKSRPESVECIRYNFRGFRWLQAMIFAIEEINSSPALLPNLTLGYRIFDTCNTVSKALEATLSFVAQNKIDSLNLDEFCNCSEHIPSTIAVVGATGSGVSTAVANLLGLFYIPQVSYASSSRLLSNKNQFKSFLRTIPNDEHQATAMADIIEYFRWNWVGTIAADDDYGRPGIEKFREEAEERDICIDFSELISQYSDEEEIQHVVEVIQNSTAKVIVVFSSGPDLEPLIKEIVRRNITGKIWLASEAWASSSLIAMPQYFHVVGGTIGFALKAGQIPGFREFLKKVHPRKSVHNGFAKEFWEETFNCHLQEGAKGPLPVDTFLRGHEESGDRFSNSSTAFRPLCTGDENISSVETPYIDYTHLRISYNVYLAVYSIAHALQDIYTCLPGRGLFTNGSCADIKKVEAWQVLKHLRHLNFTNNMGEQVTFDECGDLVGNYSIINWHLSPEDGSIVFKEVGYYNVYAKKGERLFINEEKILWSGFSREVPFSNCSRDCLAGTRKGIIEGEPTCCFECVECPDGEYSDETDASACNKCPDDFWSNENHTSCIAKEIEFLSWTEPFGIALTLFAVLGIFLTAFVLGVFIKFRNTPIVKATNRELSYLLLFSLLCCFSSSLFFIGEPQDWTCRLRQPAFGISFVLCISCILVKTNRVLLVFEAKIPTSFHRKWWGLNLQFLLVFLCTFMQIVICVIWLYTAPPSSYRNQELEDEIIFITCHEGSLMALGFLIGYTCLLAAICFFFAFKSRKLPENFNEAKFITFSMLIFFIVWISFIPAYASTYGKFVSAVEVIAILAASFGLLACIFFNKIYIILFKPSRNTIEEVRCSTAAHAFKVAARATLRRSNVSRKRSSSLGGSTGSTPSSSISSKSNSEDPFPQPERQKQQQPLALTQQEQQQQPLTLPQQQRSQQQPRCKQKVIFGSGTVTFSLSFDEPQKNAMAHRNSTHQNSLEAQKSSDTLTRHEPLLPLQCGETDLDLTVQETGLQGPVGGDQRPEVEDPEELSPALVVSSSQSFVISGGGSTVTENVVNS
# Experiment: Human CaSR antagonist activity (NFAT-Luciferase reporter in CHO cells)
# Type: cell-based
# Details: CaCl2 final 1.3 mM, 100% = reference antagonist at 10 μM; for inhibition at 3.3 µM: CHO, read-out: Inhibition rate (%) at 3.3 μM
# Procedure: CaSR antagonist activity measurement was performed using Bright-Glo Luciferase assay system (Promega Corporation). CHO cells in which human CaSR and NFAT-Luciferase reporter gene were forcibly expressed were suspended in MEM alpha (Wako Pure Chemical Industries, Ltd.) containing 10% dialyzed serum (HyClone). The cells in suspension was seeded in 384-well white plate (Corning) at 10,000/20 μL/well, and cultured in an incubator of 37° C., 5% CO2 for one day. A diluent of Test compound was prepared with assay buffer (MEM alpha containing 10 mM HEPES (Life Technologies) and 10% dialysis serum). The diluent was added to the plate at 5 μL/well and allowed to stand at 37° C. for 10 minutes. Further, a diluent of 7.8 mM CaCl2 prepared with assay buffer (final concentration 1.3 mM) was added at 5 μl/well and allowed to stand in an incubator of 37° C., 5% CO2 for 2 hours. Bright-Glo reagents (Promega Corporation) were added at 10 μL/well, and the obtained mixture was stirred for 5 minutes, and then luminescence intensity was measured using Multi-label reader Envision (PerkinElmer, Inc.). The activity (%) of the test compound was calculated with the definitions in which the luminescence intensity when DMSO is added in place of the test compound is defined as 0% inhibition; and the luminescence intensity when (5R)—N-(1-ethyl-1-(4-ethylphenyl)propyl)-2,7,7-trimethyl-5-phenyl-4,5,6,7-tetrahydropyrazolo[1,5-a] Pyrimidine-3-carboxamide at final concentration of 10 μM is added is defined as 100% inhibition.
Compound,Inhibition rate (%) at 3.3 μM,inhibition at 3.3 µM
"CCc1ccc(C(CC)(NC(=O)c2cnn3c2N[C@@H](c2ccccc2)CC3(C)C)C(=O)N(C)C)cc1 (stereo partly drawn) [Example 33, (5R)-N-(1-(Dimethylamino)-2-(4-ethylphenyl)-1-oxobutan-2-yl)-7,7-dimethyl-5-phenyl-4,5,6,7-tetrahydropyrazolo[1,5-a]pyrimidine-3-carboxamide]",104%,–
"CCc1ccc(C(CC)(NC(=O)c2cnn3c2N[C@@H](c2ccccc2)CC3(C)C)C(=O)N[C@@H](C)C(N)=O)cc1 (stereo partly drawn) [Example 2, (5R)-N-(1-(((2S)-1-Amino-1-oxopropan-2-yl)amino)-2-(4-ethylphenyl)-1-oxobutan-2-yl)-7,7-dimethyl-5-phenyl-4,5,6,7-tetrahydropyrazolo[1,5-a]pyrimidine-3-carboxamide]",–,102%
"CCc1ccc(C(CC)(NC(=O)c2cnn3c2N[C@@H](c2ccccc2)CC3(C)C)C(=O)N(C)C)cc1 (stereo partly drawn) [Example 32, (5R)-N-(1-(Dimethylamino)-2-(4-ethylphenyl)-1-oxobutan-2-yl)-7,7-dimethyl-5-phenyl-4,5,6,7-tetrahydropyrazolo[1,5-a]pyrimidine-3-carboxamide]",–,102%
CCc1ccc(C(CC)(NC(=O)c2cnn3c2N[C@@H](c2ccccc2)CC3(C)C)C(=O)N[C@@H](Cc2ccccc2)C(N)=O)cc1 (stereo partly drawn) [Example 18],–,101%
"CCc1ccc(C(CC)(NC(=O)c2cnn3c2N[C@@H](c2ccccc2)CC3(C)C)C(=O)N[C@@H](CO)C(N)=O)cc1 (stereo partly drawn) [Example 23, (5R)-N-(1-(((2S)-1-Amino-3-hydroxy-1-oxopropan-2-yl)amino)-2-(4-ethylphenyl)-1-oxobutan-2-yl)-7,7-dimethyl-5-phenyl-4,5,6,7-tetrahydropyrazolo[1,5-a]pyrimidine-3-carboxamide]",–,102%
"CCc1ccc(C(CC)(NC(=O)c2cnn3c2N[C@@H](c2ccccc2)CC3(C)C)C(=O)N[C@@H](CC(C)C)C(N)=O)cc1 (stereo partly drawn) [Example 16, (5R)-N-(1-(((2S)-1-Amino-4-methyl-1-oxopentan-2-yl)amino)-2-(4-ethylphenyl)-1-oxobutan-2-yl)-7,7-dimethyl-5-phenyl-4,5,6,7-tetrahydropyrazolo[1,5-a]pyrimidine-3-carboxamide]",105%,–
"CCc1ccc(C(C)(NC(=O)c2cnn3c2N[C@@H](c2ccccc2)CC3(C)C)C(=O)N[C@@H](CC(C)C)C(N)=O)cc1 (stereo partly drawn) [Example 9, (5R)-N-(1-(((2S)-1-Amino-4-methyl-1-oxopentan-2-yl)amino)-2-(4-ethylphenyl)-1-oxopropan-2-yl)-7,7-dimethyl-5-phenyl-4,5,6,7-tetrahydropyrazolo[1,5-a]pyrimidine-3-carboxamide]",–,98%
"CCc1ccc([C@@](CC)(NC(=O)c2cnn3c2N[C@@H](c2ccccc2)CC3(C)C)C(=O)N[C@H](C(N)=O)[C@@H](C)O)cc1 [Example 21, (5R)-N-((2R)-1-(((2S,3R)-1-Amino-3-hydroxy-1-oxobutan-2-yl)amino)-2-(4-ethylphenyl)-1-oxobutan-2-yl)-7,7-dimethyl-5-phenyl-4,5,6,7-tetrahydropyrazolo[1,5-a]pyrimidine-3-carboxamide]",–,103%
CCc1ccc(C(CC)(NC(=O)c2cnn3c2N[C@@H](c2ccccc2)CC3(C)C)C(=O)N[C@@H](CC(N)=O)C(N)=O)cc1 (stereo partly drawn) [Example 24],–,102%
"CCc1ccc([C@](CC)(NC(=O)c2c(C)nn3c2N[C@@H](c2ccccc2)CC3(C)C)C(=O)N[C@@H](C)C(N)=O)cc1 [Example 3, (5R)-N-((2S)-1-(((2S)-1-Amino-1-oxopropan-2-yl)amino)-2-(4-ethylphenyl)-1-oxobutan-2-yl)-2,7,7-trimethyl-5-phenyl-4,5,6,7-tetrahydropyrazolo[1,5-a]pyrimidine-3-carboxamide]",–,94%
"CCc1ccc(C(CC)(NC(=O)c2cnn3c2N[C@@H](c2ccccc2)CC3(C)C)C(=O)N[C@@H](CCCCN)C(N)=O)cc1 (stereo partly drawn) [Example 20, (5R)-N-(1-(((2S)-1,6-Diamino-1-oxohexan-2-yl)amino)-2-(4-ethylphenyl)-1-oxobutan-2-yl)-7,7-dimethyl-5-phenyl-4,5,6,7-tetrahydropyrazolo[1,5-a]pyrimidine-3-carboxamide]",–,101%
"CCc1ccc(C(CC)(NC(=O)c2cnn3c2N[C@@H](c2ccccc2)CC3(C)C)C(N)=O)cc1 (stereo partly drawn) [Example 26, (5R)-N-(1-Amino-2-(4-ethylphenyl)-1-oxobutan-2-yl)-7,7-dimethyl-5-phenyl-4,5,6,7-tetrahydropyrazolo[1,5-a]pyrimidine-3-carboxamide]",–,106%
"CCc1ccc(C(CC)(NC(=O)c2cnn3c2N[C@@H](c2ccccc2)CC3(C)C)C(=O)N[C@H](C)C(N)=O)cc1 (stereo partly drawn) [Example 22, (5R)-N-(1-(((2R)-1-Amino-1-oxopropan-2-yl)amino)-2-(4-ethylphenyl)-1-oxobutan-2-yl)-7,7-dimethyl-5-phenyl-4,5,6,7-tetrahydropyrazolo[1,5-a]pyrimidine-3-carboxamide]",–,106%
"CCc1ccc(C(CC)(NC(=O)c2cnn3c2N[C@@H](c2ccccc2)CC3(C)C)C(=O)NC)cc1 (stereo partly drawn) [Example 29, (5R)-N-(2-(4-Ethylphenyl)-1-(methylamino)-1-oxobutan-2-yl)-7,7-dimethyl-5-phenyl-4,5,6,7-tetrahydropyrazolo[1,5-a]pyrimidine-3-carboxamide]",–,103%
"CCc1ccc(C(CC)(NC(=O)c2cnn3c2N[C@@H](c2ccccc2)CC3(C)C)C(=O)N[C@@H](CC(C)C)C(N)=O)cc1 (stereo partly drawn) [Example 14, (5R)-N-(1-(((2S)-1-Amino-4-methyl-1-oxopentan-2-yl)amino)-2-(4-ethylphenyl)-1-oxobutan-2-yl)-7,7-dimethyl-5-phenyl-4,5,6,7-tetrahydropyrazolo[1,5-a]pyrimidine-3-carboxamide]",–,98%
"CCc1ccc(C(CC)(NC(=O)c2cnn3c2N[C@@H](c2ccccc2)CC3(C)C)C(=O)N[C@H](C(N)=O)[C@@H](C)CC)cc1 (stereo partly drawn) [Example 10, (5R)-N-(1-(((2S,3S)-1-Amino-3-methyl-1-oxopentan-2-yl)amino)-2-(4-ethylphenyl)-1-oxobutan-2-yl)-7,7-dimethyl-5-phenyl-4,5,6,7-tetrahydropyrazolo[1,5-a]pyrimidine-3-carboxamide]",–,100%
"CCc1ccc(C(CC)(NC(=O)c2cnn3c2N[C@@H](c2ccccc2)CC3(C)C)C(=O)NCC(N)=O)cc1 (stereo partly drawn) [Example 17, (5R)-N-(1-((2-Amino-2-oxoethyl)amino)-2-(4-ethylphenyl)-1-oxobutan-2-yl)-7,7-dimethyl-5-phenyl-4,5,6,7-tetrahydropyrazolo[1,5-a]pyrimidine-3-carboxamide]",–,104%
"CCc1ccc(C(CC)(NC(=O)c2cnn3c2N[C@@H](c2ccccc2)CC3(C)C)C(=O)N[C@@H](CC(C)C)C(N)=O)cc1 (stereo partly drawn) [Example 15, (5R)-N-(1-(((2S)-1-Amino-4-methyl-1-oxopentan-2-yl)amino)-2-(4-ethylphenyl)-1-oxobutan-2-yl)-7,7-dimethyl-5-phenyl-4,5,6,7-tetrahydropyrazolo[1,5-a]pyrimidine-3-carboxamide]",101%,–
